Laboratory results reported in PubChem BioAssay AID1963853 (Molecular Pharmacology Branch, DTP, NCI, 2024).

System: 266295-075-R-J1-PDC spheroid viability
Test: Anticancer human tumor 266295-075-R-J1-PDC patient-derived head and neck squamous carcinoma cell line growth inhibition [POLQ]
Settings: spheroids with HUVEC and MSC; for IC50: curve of first compound; for viability, T/C: stronger effect = lower value
Protocol: Multicellular complex tumor spheroid response to Polymerase (POL) inhibitors (novobiocin, ART-558, RP6685) in combination with a variety of drugs and investigational agents in selected tumor cell lines
The POL inhibitors (novobiocin, ART-558, and RP6685) were evaluated both individually and in combination with standard of care and investigational anticancer small molecules within a complex spheroid model of solid tumors. . Complex spheroids include a stromal component modeled by human endothelial cells (HUVEC) and fibroblasts modeled by human mesenchymal stem cells (MSCs). The concentration ranges selected for each drug and investigational agent were based upon clinically achievable concentrations if the clinical Cmax of the agent was known.
Compounds. The drugs and investigational agents: novobiocin (NSC847541), ART-558 (NSC835418), RP-6685 (NSC848927), peposertib (NSC802822), ceralasertib (NSC780249), elimusertib (NSC800525), camonsertib (NSC841442), AZD-1390 (NSC803789), olaparib (NSC753686), talazoparib (NSC767125), rucaparib (NSC756644), sotorasib (NSC818433), MRTX-1133 (NSC836407), SN-38 (NSC673596), topotecan (NSC609699), epotoside (NSC141540), doxorubicin (NSC123127), gemcitabine (NSC613327), 5-fluorouracil (NSC19893), paclitaxel (NSC125973), vemurafenib (NSC761431), MSA-2 (NSC828583), SN-011 (NSC837082), adavosertib (NSC754352), prexasertib (NSC758257), carboplatin (NSC241240) and oxaliplatin (NSC266046), were obtained from the National Cancer Institute (NCI) Developmental Therapeutics Program Chemical Repository (21). The FDA-approved anticancer drug set is available from the Developmental Therapeutics Program at https://dtp.cancer.gov/organization/dscb/obtaining/. […] The stock solutions were prepared in dimethyl sulfoxide (DMSO, Sigma-Aldrich, St. Louis, MO, cat. D2650), except for the platinum compounds which were prepared in saline (Quality Biological, Gaithersburg, MD, cat. 114-055-101), at 800-fold the tested concentration and stored at -70 degrees C prior to their use. All drugs and investigational agents were tested over a range starting from a high concentration at or near the clinical Cmax and decreasing in half-log increments. If the clinical Cmax for an agent had not been determined, the highest concentration tested was 10 microM, except for SN-38, which was tested at a high concentration of 1 microM.
Cell Culture. All cells were maintained in an incubator at 37 degrees C and 5% CO2 with 95% humidity. The PDC lines were cultured according to standard operating procedures established by the NCI PDMR (https://pdmr.cancer.gov). Table 3 of the manuscript, lists the cell lines along with the number of the three cell types plated to form the mct-spheroids and media for tumor cell growth. After thawing, all PDC lines, except 997537-175-T-J1-PDC and 415267-285-R-J2-PDC, were cultured in Matrigel-coated flasks prepared with a working solution of 1X Ham's F-12 nutrient mix, without supplementation (Thermo Fisher Scientific, cat. 11765054), 100 U/mL penicillin-streptomycin (Thermo Fisher Scientific, cat. 15140122), and 2.5% Matrigel (Corning Inc., Corning, NY, cat. 354248) for the first three passages. The two PDC lines 997537-175-T-J1-PDC and 415267-285-R-J2-PDC were cultured on uncoated flasks. The 857933-349-R-J2-PDC line was cultured in 6C/Colon 1B media containing advanced DMEM/F-12 (Thermo Fisher Scientific, cat. 12634028), 10 mM HEPES (Thermo Fisher Scientific, cat. 15630080), 1X GlutaMAX supplement (Thermo Fisher Scientific, cat. 35050061), 0.1 mg/mL primocin (InvivoGen, San Diego, CA, cat. ant-pm-2), 10% defined fetal bovine serum, heat inactivated (HyClone Laboratories Inc., Logan, UT, cat. SH30070.03HI), 50% L-WRN conditioned media (ATCC, cat. CRL-3276), 1.25 mM N-Acetyl-L-cysteine (Sigma-Aldrich, cat. A9165), 10 mM nicotinamide (Sigma-Aldrich, cat. N0636), 1X B-27 supplement (Thermo Fisher Scientific, cat. 17504044), 1X N-2 supplement (Thermo Fisher Scientific, cat. […]

[1] = second compound 0.0316 µM, first compound 0.0316 µM
[2] = second compound 0.0316 µM, first compound 0.1 µM
[3] = second compound 0.0316 µM, first compound 0.316 µM
[4] = second compound 0.0316 µM, first compound 1 µM
[5] = second compound 0.0316 µM, first compound 3.16 µM
[6] = second compound 0.0316 µM, first compound 10 µM
[7] = second compound 0.1 µM, first compound 0.0316 µM
[8] = second compound 0.1 µM, first compound 0.1 µM
[9] = second compound 0.1 µM, first compound 0.316 µM
[10] = second compound 0.1 µM, first compound 1 µM
[11] = second compound 0.1 µM, first compound 3.16 µM
[12] = second compound 0.1 µM, first compound 10 µM
[13] = second compound 0.316 µM, first compound 0.0316 µM
[14] = second compound 0.316 µM, first compound 0.1 µM
[15] = second compound 0.316 µM, first compound 0.316 µM
[16] = second compound 0.316 µM, first compound 1 µM
[17] = second compound 0.316 µM, first compound 3.16 µM
[18] = second compound 0.316 µM, first compound 10 µM
[19] = second compound 1 µM, first compound 0.0316 µM
[20] = second compound 1 µM, first compound 0.1 µM
[21] = second compound 1 µM, first compound 0.316 µM
[22] = second compound 1 µM, first compound 1 µM
[23] = second compound 1 µM, first compound 3.16 µM
[24] = second compound 1 µM, first compound 10 µM
[25] = second compound 3.16 µM, first compound 0.0316 µM
[26] = second compound 3.16 µM, first compound 0.1 µM
[27] = second compound 3.16 µM, first compound 0.316 µM
[28] = second compound 3.16 µM, first compound 1 µM
[29] = second compound 3.16 µM, first compound 3.16 µM
[30] = second compound 3.16 µM, first compound 10 µM
[31] = second compound 10 µM, first compound 0.0316 µM
[32] = second compound 10 µM, first compound 0.1 µM
[33] = second compound 10 µM, first compound 0.316 µM
[34] = second compound 10 µM, first compound 1 µM
[35] = second compound 10 µM, first compound 3.16 µM
[36] = second compound 10 µM, first compound 10 µM
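Note: spheroids exposed to compounds for seven days before readout.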

Work on O=C(Nc1ccc(O)c(NS(=O)(=O)c2ccc(F)cc2)c1)c1ccc(-c2ccccc2)cc1 + COC1C(OC(N)=O)C(O)C(Oc2ccc3c(O)c(NC(=O)c4ccc(O)c(CC=C(C)C)c4)c(=O)oc3c2C)OC1(C)C yielded an IC50 (second compound 0.0316 µM) greater than 10 µM, an IC50 (second compound 0.1 µM) greater than 10 µM and an IC50 (second compound 0.316 µM) greater than 10 µM. The IC50 (second compound 1 µM) was greater than 10 µM, the IC50 (second compound 3.16 µM) was greater than 10 µM and the IC50 (second compound 10 µM) was greater than 10 µM. For the same molecule, the viability, T/C [1] was 93.7%, the viability, T/C [2] was 96.6% and the viability, T/C [3] was 110%. The viability, T/C [4] was 110%, the viability, T/C [5] was 128% and the viability, T/C [6] was 113%. For the same molecule, the viability, T/C [7] was 112%, the viability, T/C [8] was 87.2% and the viability, T/C [9] was 109%. It also gave a viability, T/C [10] of 112%, a viability, T/C [11] of 145% and a viability, T/C [12] of 107%. For the same molecule, the viability, T/C [13] was 101%, the viability, T/C [14] was 102% and the viability, T/C [15] was 116%. For the same molecule, the viability, T/C [16] was 104%, the viability, T/C [17] was 120% and the viability, T/C [18] was 103%. For the same molecule, the viability, T/C [19] was 111%, the viability, T/C [20] was 105% and the viability, T/C [21] was 99.7%. For the same molecule, the viability, T/C [22] was 112%, the viability, T/C [23] was 130% and the viability, T/C [24] was 112%. For the same molecule, the viability, T/C [25] was 115%, the viability, T/C [26] was 96.6% and the viability, T/C [27] was 101%. It also gave a viability, T/C [28] of 119%, a viability, T/C [29] of 136% and a viability, T/C [30] of 104%. It also gave a viability, T/C [31] of 115%, a viability, T/C [32] of 94.8% and a viability, T/C [33] of 110%. It also gave a viability, T/C [34] of 100%, a viability, T/C [35] of 130% and a viability, T/C [36] of 103%.
CC1COCCN1c1cc(-c2ccnn2C)c2ccnc(-c3ccn[nH]3)c2n1 (centres undefined) + Nc1ccc(C#CCN(C(=O)Cc2ncc(C(F)(F)F)cc2C(F)(F)F)c2ccc(F)cc2)nn1 showed an IC50 (second compound 0.0316 µM) of 3.04 µM, an IC50 (second compound 0.1 µM) of 2.55 µM and an IC50 (second compound 0.316 µM) of 0.284 µM. For the same molecule, the IC50 (second compound 1 µM) was 1.29 µM, the IC50 (second compound 3.16 µM) was 2.02 µM and the IC50 (second compound 10 µM) was 1.14 µM. The viability, T/C [1] was 92.3%, the viability, T/C [2] was 73.2% and the viability, T/C [3] was 78%. The viability, T/C [4] was 63.6%, the viability, T/C [5] was 46.9% and the viability, T/C [6] was 36.5%. For the same molecule, the viability, T/C [7] was 92.1%, the viability, T/C [8] was 84.4% and the viability, T/C [9] was 69.1%. It also gave a viability, T/C [10] of 57.5%, a viability, T/C [11] of 52.2% and a viability, T/C [12] of 34.3%. For the same molecule, the viability, T/C [13] was 90.2%, the viability, T/C [14] was 86.1% and the viability, T/C [15] was 44.8%. The viability, T/C [16] was 55.6%, the viability, T/C [17] was 42.3% and the viability, T/C [18] was 42.5%. It also gave a viability, T/C [19] of 85%, a viability, T/C [20] of 76.3% and a viability, T/C [21] of 59.1%. The viability, T/C [22] was 52.1%, the viability, T/C [23] was 46.2% and the viability, T/C [24] was 26.8%. For the same molecule, the viability, T/C [25] was 103%, the viability, T/C [26] was 83.8% and the viability, T/C [27] was 74%. For the same molecule, the viability, T/C [28] was 60.7%, the viability, T/C [29] was 43.1% and the viability, T/C [30] was 30.7%. For the same molecule, the viability, T/C [31] was 97.2%, the viability, T/C [32] was 91.9% and the viability, T/C [33] was 69.5%. The viability, T/C [34] was 54.7%, the viability, T/C [35] was 35.8% and the viability, T/C [36] was 35.6%.
